Test results published in EP2987482A1 (Santa Farma Ilaç Sanayi A.S., priority 2014, dated 2016).

Tests used:
[1] = cited from earlier work
[2] = pH of media after dissolving the composition in water; format: physicochemical; details: magnetic stirrer for 3 minutes

Substance: 4-[3,5-bis(2-hydroxyphenyl)-[1,2,4]triazol-1-yl]benzoic acid [deferasirox]
- permeability [1]: good permeability
- pH of media ([2]; composition with 500 mg deferasirox and 40 mg sodium carbonate): 8.13
- pH of media ([2]; composition with 500 mg deferasirox and 60 mg sodium carbonate): 8.33
- pH of media ([2]; composition with 500 mg deferasirox and 80 mg sodium carbonate): 8.44
- pH of media ([2]; composition with 500 mg deferasirox and 100 mg sodium carbonate): 8.65
- pH of media ([2]; composition with 500 mg deferasirox and 120 mg sodium carbonate): 8.77
- pH of media ([2]; composition with 500 mg deferasirox and 140 mg sodium carbonate): 8.84
- pH of media ([2]; composition with 500 mg deferasirox and 160 mg sodium carbonate): 8.91
